Assay results as given in PubChem BioAssay (NCI).
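Following 48 hours of exposure in 96-well plates, responses at five concentrations were used to interpolate endpoints linearly. Abbreviation: GI50, concentration required for 50% inhibition of growth. TGI: total growth inhibition.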

These molecules were tested on SNB-19 CNS (assay: growth of human tumour cells (NCI), 48 h).

Structure (SMILES)	GI50	TGI
CN1CCN(c2ccc(Nc3ncc(Cl)c(NC[C@@H]4CCCO4)n3)cc2)CC1	3.69 µM	> 100 µM

The molecules below were run on HL-60(TB) leukemia (assay: growth of human tumour cells (NCI), 48 h).

Structure (SMILES)	TGI	GI50
C[C@@]1(O)CC[C@]2(C)C3CCCC3[C@H]12 (stereo not given in full)	> 100 µM	
O=C1OCC2=C1C(c1cccc(Br)c1)c1cc3c(cc1N2CCO)OCCO3 (stereo not given)	0.362 µM	0.0452 µM
COc1ccc(Cn2c(Br)c3c(c2Br)-c2nc(N)sc2CC3)cc1	22.6 µM	2.75 µM
CC(=O)[O-].CC(=O)[O-].O=C(N/N=C/c1cc(Cl)cc(Cl)c1O)c1ccncc1.[Cu+2]	> 100 µM	
Cc1nnc2ccnn2c1C	> 100 µM	> 100 µM
CCOC(=O)C1=C(C)N(NC(=O)Nc2ccccc2)C2(N)N(NC(=O)Nc3ccccc3)C(C)=C(C(=O)OCC)C12C(=O)OCC (stereo not given)	> 100 µM	
Cn1cc(-c2cc3c(N4CCN(c5ncc([C@@](C)(N)c6ccc(F)cc6)cn5)CC4)ncnn3c2)cn1	> 100 µM	3.8 µM
O=C(O)CSc1n[nH]c(-c2ccccc2O)n1	> 100 µM	
Cc1nc(-c2nc(C)c(C(=O)NNC(=O)C[n+]3ccccc3)s2)sc1C(=O)NNC(=O)C[n+]1ccccc1	> 100 µM	
CN(C)C=Nc1nc(=O)n(C2CCC(CO)O2)cc1F (stereo not given)	> 100 µM	
O=c1[nH]c(-c2ccccc2)nc2cc(Cl)ccc12	> 100 µM	
Cc1ccc(S(=O)(=O)N2CCC2c2ccccc2)cc1 (stereo not given)	40.6 µM	
CCCOc1nc(N)c2cnn(C3CCCCO3)c2n1 (stereo not given)	> 100 µM	
C/C(CN1C(=O)c2ccccc2C1=O)=N\NS(=O)(=O)c1ccc(Cl)cc1	> 100 µM	
C[C@@H]1CC[C@H]2C(C)(C)[C@H]3C[C@@]12CC[C@@]3(C)O	61.9 µM	
Cc1ccc(-c2nc(N3CCNCC3)c3oc(-c4ccc(C)cc4)nc3n2)cc1	3.26 µM	1.17 µM

Structure (SMILES)	TGI	GI50
[O-][Cl+3]([O-])([O-])[O-].[O]=[Ru]=[O].c1ccc(-c2ccccn2)nc1.c1ccc(-c2ccccn2)nc1	> 100 µM	> 100 µM
C=C1C(=O)O[C@H]2[C@H]1CC/C(CNC(=O)c1cc3ccccc3[nH]1)=C\CC[C@@]1(C)O[C@@H]21	5.8 µM	2.01 µM
Cc1cc2c(cc1C)[n+](=O)c(C(=O)c1ccccc1)c(C(F)F)n2[O-]	18.9 µM	3.3 µM
Cc1ccc(NC2=C3CCCCC3OC2=O)cc1 (stereo not given)	> 100 µM	55.6 µM
COc1cc2c(cc1OC)C(Cl)C(c1ccc(F)cc1)=C2Cl (stereo not given)	24.2 µM	
O=C1C(C(Nc2ccccc2)c2ccccc2)=C([O-])c2ccccc21.O=C1C(C(Nc2ccccc2)c2ccccc2)=C([O-])c2ccccc21.[Cu+2] (stereo not given)	> 100 µM	19.6 µM
CCOC(=O)C1Sc2ccccc2N=C1C (stereo not given)	> 100 µM	
COC1=CC(=O)C(C2(OC(C)C)OC(=O)C(Cl)=C2Cl)=CC1=O (stereo not given)	1.55 µM	
O=C(NC1C=CCC2C(=O)N(c3ccccc3)C(=O)C12)OCc1ccccc1 (stereo not given)	> 100 µM	
CCC(C)SC1SCC2C(=O)N(C)C3(CC3C)C(=O)OCC(NC(=O)c3nc4ccccc4cc3O)C(=O)NC(C)C(=O)N(C)C1C(=O)N(C)C1(CC1C)C(=O)OCC(NC(=O)c1nc3ccccc3cc1O)C(=O)NC(C)C(=O)N2C (stereo not given)	0.00488 µM	
Cc1[cH-]c(=O)n(-c2ccccc2)n1.[Au+].[Au].c1ccc([PH+](c2ccccc2)c2ccccc2)cc1.c1ccc([PH+](c2ccccc2)c2ccccc2)cc1	41.1 µM	15.2 µM
CC1(C)CC(c2c[nH]c3ccccc23)=CC2=Nc3ccccc3C21O (stereo not given)	> 100 µM	
CN1C(=O)C(=O)N2c3ccc(Cl)cc3C3(c4ccccc4)N=CC12O3 (stereo not given)	6.26 µM	
N#CCCC[Si]12OCCN(CCO1)CCO2	> 100 µM	
O=C(/C=C/c1c(O)ccc2ccccc12)c1ccc([N+](=O)[O-])cc1	48.6 µM	
CN1CCN(c2ccc(Nc3ncc(Cl)c(NC[C@@H]4CCCO4)n3)cc2)CC1	4.76 µM	1.48 µM

These molecules were tested on K-562 leukemia (assay: growth of human tumour cells (NCI), 48 h).

Structure (SMILES)	TGI	GI50
C[C@@]1(O)CC[C@]2(C)C3CCCC3[C@H]12 (stereo not given in full)	> 100 µM	
O=C1OCC2=C1C(c1cccc(Br)c1)c1cc3c(cc1N2CCO)OCCO3 (stereo not given)	> 27.7 µM	55 nM
COc1ccc(Cn2c(Br)c3c(c2Br)-c2nc(N)sc2CC3)cc1	57.9 µM	2430 nM
CC(=O)[O-].CC(=O)[O-].O=C(N/N=C/c1cc(Cl)cc(Cl)c1O)c1ccncc1.[Cu+2]	> 100 µM	
O=C(Nc1nc(=S)[nH][nH]1)C(=O)C(C(=O)c1ccc2ccccc2c1)C1OC(=O)c2ccccc21 (stereo not given)	82.9 µM	
Cc1nnc2ccnn2c1C	> 100 µM	> 100000 nM
CCOC(=O)C1=C(C)N(NC(=O)Nc2ccccc2)C2(N)N(NC(=O)Nc3ccccc3)C(C)=C(C(=O)OCC)C12C(=O)OCC (stereo not given)	> 100 µM	
Cn1cc(-c2cc3c(N4CCN(c5ncc([C@@](C)(N)c6ccc(F)cc6)cn5)CC4)ncnn3c2)cn1	> 100 µM	2490 nM
O=C(O)CSc1n[nH]c(-c2ccccc2O)n1	> 100 µM	
Cc1nc(-c2nc(C)c(C(=O)NNC(=O)C[n+]3ccccc3)s2)sc1C(=O)NNC(=O)C[n+]1ccccc1	> 100 µM	
CN(C)C=Nc1nc(=O)n(C2CCC(CO)O2)cc1F (stereo not given)	> 100 µM	
O=c1[nH]c(-c2ccccc2)nc2cc(Cl)ccc12	> 100 µM	
Cc1ccc(S(=O)(=O)N2CCC2c2ccccc2)cc1 (stereo not given)	> 100 µM	
CCCOc1nc(N)c2cnn(C3CCCCO3)c2n1 (stereo not given)	> 100 µM	
C/C(CN1C(=O)c2ccccc2C1=O)=N\NS(=O)(=O)c1ccc(Cl)cc1	> 100 µM	
C[C@@H]1CC[C@H]2C(C)(C)[C@H]3C[C@@]12CC[C@@]3(C)O	> 100 µM	
COc1ccc(/C=C/COC(C)=O)cc1OC	> 100 µM	
C=C(C)C(=O)O[C@@H]1C[C@@]2(C)O[C@@H]2C[C@H](O)/C(C)=C/[C@H]2OC(=O)C(=C)[C@@H]21	> 100 µM	

Structure (SMILES)	TGI	GI50
Cc1ccc(-c2nc(N3CCNCC3)c3oc(-c4ccc(C)cc4)nc3n2)cc1	4.51 µM	1810 nM
[O-][Cl+3]([O-])([O-])[O-].[O]=[Ru]=[O].c1ccc(-c2ccccn2)nc1.c1ccc(-c2ccccn2)nc1	> 100 µM	> 100000 nM
C=C1C(=O)O[C@H]2[C@H]1CC/C(CNC(=O)c1cc3ccccc3[nH]1)=C\CC[C@@]1(C)O[C@@H]21	4.92 µM	642 nM
Cc1cc2c(cc1C)[n+](=O)c(C(=O)c1ccccc1)c(C(F)F)n2[O-]	> 100 µM	10100 nM
Cc1ccc(NC2=C3CCCCC3OC2=O)cc1 (stereo not given)	> 100 µM	45100 nM
COc1cc2c(cc1OC)C(Cl)C(c1ccc(F)cc1)=C2Cl (stereo not given)	44.6 µM	
CN(C)c1ccc(/C=N/NC(=S)Nc2ccccc2)cc1	> 100 µM	
O=C1C(C(Nc2ccccc2)c2ccccc2)=C([O-])c2ccccc21.O=C1C(C(Nc2ccccc2)c2ccccc2)=C([O-])c2ccccc21.[Cu+2] (stereo not given)	> 100 µM	28600 nM
CN(C)CC1CCC/C1=N/OC(=O)c1ccccc1 (stereo not given)	> 100 µM	
CCOC(=O)C1Sc2ccccc2N=C1C (stereo not given)	> 100 µM	
COC1=CC(=O)C(C2(OC(C)C)OC(=O)C(Cl)=C2Cl)=CC1=O (stereo not given)	10.8 µM	
O=C(NC1C=CCC2C(=O)N(c3ccccc3)C(=O)C12)OCc1ccccc1 (stereo not given)	> 100 µM	
Cc1[cH-]c(=O)n(-c2ccccc2)n1.[Au+].[Au].c1ccc([PH+](c2ccccc2)c2ccccc2)cc1.c1ccc([PH+](c2ccccc2)c2ccccc2)cc1	> 100 µM	34700 nM
CC1(C)CC(c2c[nH]c3ccccc23)=CC2=Nc3ccccc3C21O (stereo not given)	> 100 µM	
CN1C(=O)C(=O)N2c3ccc(Cl)cc3C3(c4ccccc4)N=CC12O3 (stereo not given)	19.9 µM	
N#CCCC[Si]12OCCN(CCO1)CCO2	> 100 µM	
O=C(/C=C/c1c(O)ccc2ccccc12)c1ccc([N+](=O)[O-])cc1	> 100 µM	
CN1CCN(c2ccc(Nc3ncc(Cl)c(NC[C@@H]4CCCO4)n3)cc2)CC1	> 100 µM	2940 nM

The molecules below were run on SK-MEL-5 melanoma (assay: growth of human tumour cells (NCI), 48 h).

Structure (SMILES)	TGI	GI50
C[C@@]1(O)CC[C@]2(C)C3CCCC3[C@H]12 (stereo not given in full)	> 100 µM	
O=C1OCC2=C1C(c1cccc(Br)c1)c1cc3c(cc1N2CCO)OCCO3 (stereo not given)	0.252 µM	0.0348 µM
COc1ccc(Cn2c(Br)c3c(c2Br)-c2nc(N)sc2CC3)cc1	18.7 µM	4.83 µM
CC(=O)[O-].CC(=O)[O-].O=C(N/N=C/c1cc(Cl)cc(Cl)c1O)c1ccncc1.[Cu+2]	> 100 µM	
O=C(Nc1nc(=S)[nH][nH]1)C(=O)C(C(=O)c1ccc2ccccc2c1)C1OC(=O)c2ccccc21 (stereo not given)	43.9 µM	
Cc1nnc2ccnn2c1C	> 100 µM	23.8 µM
CCOC(=O)C1=C(C)N(NC(=O)Nc2ccccc2)C2(N)N(NC(=O)Nc3ccccc3)C(C)=C(C(=O)OCC)C12C(=O)OCC (stereo not given)	> 100 µM	
O=C(O)CSc1n[nH]c(-c2ccccc2O)n1	> 100 µM	
